Columns and labels:
[1] = test system: E. coli; settings: duplicate experiments
[2] = test system: S. aureus; settings: duplicate experiments
[3] = test system: B. subtilis; settings: duplicate experiments
[4] = test system: erythrocytes; assay: Hemolysis assay; settings: human erythrocytes, 1 h, at 32 μg/mL
Experimental: Human whole blood was centrifuged at 600×g for 15 min and levels of plasma and hematocrit were marked on the tube. Plasma was removed and the erythrocytes washed 3× with PBS (centrifuging at 600×g for 15 mins). After discarding the supernatant, the packed cells were stored on ice. 100 μL of the peptides (128 μg/mL in PBS, 2% DMSO) as well as a control solution comprised of 2% DMSO in PBS were added to the top row of a polypropylene, round-bottom 96 well plate and 50 μL of PBS to the rest of the wells. The peptides and the DMSO control solutions were then diluted serially down the rows. 200 μL of the packed cells were added to PBS (10 mL) and 50 μL of this suspension was added to each well. A column with DI water containing 0.1% Triton X-100 was used as the 100% lysis control, and the column containing the serially-diluted PBS (1.0% DMSO) control served as the 0% lysis reference. The cells were incubated at 37° C. for 1 h. After incubation the plates were centrifuged (800×g, 5 min) and 25 μL of the supernatant was added to 100 μL DI water in a flat-bottom plate (polystyrene). The absorption at 414 nm was recorded to measure the amount of free hemoglobin.

nisin [Compound B]
MIC values E. coli [1]: >10 µg/mL
MIC values S. aureus [2]: 10 µg/mL
MIC values B. subtilis [3]: 0.625 to 2.5 µg/mL
hemolysis [4]: negligible hemolysis

From patent publication US20170362283A1, “NISIN-BASED COMPOUNDS AND USE THEREOF IN THE TREATMENT OF BACTERIAL INFECTIONS” (UNIVERSITEIT UTRECHT HOLDING B.V., priority 2015, published 2017)
